Data published in the CheMixHub viscosity set.
± gives the uncertainty stated by the source.

Assay: xn = mol fraction of the nth substance listed

CCNc1ccccc1 + Brc1ccccc1
viscosity [mPa·s], 101 kPa
Conditions | 303.15 K | 308.15 K
x1 = 0.0714 | 1.056 ± 0.012 | 0.995 ± 0.012
x1 = 0.1264 | 1.092 ± 0.012 | 1.023 ± 0.012
x1 = 0.1965 | 1.139 ± 0.013 | 1.06 ± 0.012
x1 = 0.2605 | 1.183 ± 0.013 | 1.095 ± 0.013
x1 = 0.3365 | 1.237 ± 0.013 | 1.137 ± 0.013
x1 = 0.3956 | 1.28 ± 0.013 | 1.171 ± 0.013
x1 = 0.4958 | 1.352 ± 0.014 | 1.229 ± 0.013
x1 = 0.5606 | 1.399 ± 0.014 | 1.268 ± 0.014
x1 = 0.6429 | 1.46 ± 0.014 | 1.319 ± 0.014
x1 = 0.7152 | 1.514 ± 0.015 | 1.364 ± 0.014
x1 = 0.7825 | 1.565 ± 0.015 | 1.407 ± 0.015
x1 = 0.8628 | 1.628 ± 0.015 | 1.46 ± 0.015
x1 = 0.9205 | 1.675 ± 0.016 | 1.499 ± 0.015

C1CCCCCC1 + C1CCCCC1
303.15 K, 101 kPa
Conditions | viscosity [mPa·s]
x2 = 0.1425 | 1.16 ± 0.0071
x2 = 0.2998 | 1.085 ± 0.0067
x2 = 0.4978 | 1.003 ± 0.0062
x2 = 0.6947 | 0.9296 ± 0.0058
x2 = 0.8482 | 0.8767 ± 0.0056

CC(=O)O + C1CCCCC1
303.15 K, 101 kPa
Conditions | viscosity [mPa·s]
x2 = 0.09517 | 0.8375 ± 0.0099
x2 = 0.1912 | 0.747 ± 0.0089
x2 = 0.2978 | 0.6933 ± 0.0083
x2 = 0.5005 | 0.6661 ± 0.008
x2 = 0.5952 | 0.6798 ± 0.0081
x2 = 0.6982 | 0.6567 ± 0.0079
x2 = 0.8007 | 0.6847 ± 0.0082
x2 = 0.9035 | 0.7306 ± 0.0087

CC(=O)O + C1CCOC1
298.15 K, 101 kPa
Conditions | viscosity [mPa·s]
x2 = 0.0847 | 1.112 ± 0.0094
x2 = 0.1723 | 1.087 ± 0.0092
x2 = 0.263 | 1.04 ± 0.0088
x2 = 0.357 | 0.9739 ± 0.0082
x2 = 0.4544 | 0.8952 ± 0.0076
x2 = 0.5554 | 0.8054 ± 0.0069
x2 = 0.6602 | 0.7083 ± 0.0061
x2 = 0.7691 | 0.6103 ± 0.0053
x2 = 0.8823 | 0.5294 ± 0.0046

ClCCCl + C1CCOC1
303.15 K, 101 kPa
Conditions | viscosity [mPa·s]
x2 = 0.0815 | 0.7038 ± 0.0058
x2 = 0.1436 | 0.6852 ± 0.0056
x2 = 0.2414 | 0.6571 ± 0.0054
x2 = 0.3055 | 0.6394 ± 0.0053
x2 = 0.4137 | 0.6105 ± 0.0051
x2 = 0.5015 | 0.5879 ± 0.0049
x2 = 0.6095 | 0.5606 ± 0.0047
x2 = 0.7289 | 0.5307 ± 0.0045
x2 = 0.8142 | 0.5097 ± 0.0044
x2 = 0.9176 | 0.485 ± 0.0042

ClCCl + C1CCOC1
298 K, 101 kPa
Conditions | viscosity [mPa·s]
x1 = 0.0981 | 0.455 ± 0.015
x1 = 0.2079 | 0.454 ± 0.015
x1 = 0.3064 | 0.453 ± 0.015
x1 = 0.3509 | 0.452 ± 0.015
x1 = 0.4032 | 0.451 ± 0.015
x1 = 0.4519 | 0.45 ± 0.015
x1 = 0.4994 | 0.449 ± 0.015
x1 = 0.5531 | 0.447 ± 0.015
x1 = 0.5994 | 0.445 ± 0.015
x1 = 0.6477 | 0.443 ± 0.015
x1 = 0.6696 | 0.441 ± 0.015
x1 = 0.7756 | 0.437 ± 0.015
x1 = 0.7999 | 0.435 ± 0.015
x1 = 0.9011 | 0.428 ± 0.015

ClCCCl + C1COCCO1
303.15 K, 101.33 kPa
Conditions | viscosity [mPa·s]
x2 = 0.0462 | 0.7468 ± 0.0055
x2 = 0.1984 | 0.7909 ± 0.0058
x2 = 0.2786 | 0.8101 ± 0.0059
x2 = 0.3663 | 0.8307 ± 0.006
x2 = 0.4515 | 0.8512 ± 0.0062
x2 = 0.567 | 0.8832 ± 0.0064
x2 = 0.6362 | 0.9068 ± 0.0066
x2 = 0.7673 | 0.9595 ± 0.0069
x2 = 0.8428 | 0.996 ± 0.0072
x2 = 0.9185 | 1.037 ± 0.0075

ClCCl + C1COCCO1
viscosity [mPa·s], 101 kPa
Conditions | x1 = 0.117 | x1 = 0.1716 | x1 = 0.2883 | x1 = 0.4089 | x1 = 0.4973 | x1 = 0.5905 | x1 = 0.7057 | x1 = 0.7928 | x1 = 0.902
293.15 K | 1.112 ± 0.011 | 1.045 ± 0.01 | 0.946 ± 0.009 | 0.841 ± 0.008 | 0.76 ± 0.008 | 0.691 ± 0.007 | 0.612 ± 0.006 | 0.553 ± 0.006 | 0.485 ± 0.005
298.15 K | 1.027 ± 0.01 | 0.97 ± 0.01 | 0.882 ± 0.009 | 0.786 ± 0.008 | 0.713 ± 0.007 | 0.654 ± 0.007 | 0.579 ± 0.006 | 0.525 ± 0.005 | 0.46 ± 0.005

CC(=O)O + CC#N
viscosity [mPa·s], 101 kPa
Conditions | x1 = 0.0924 | x1 = 0.1864 | x1 = 0.282 | x1 = 0.3793 | x1 = 0.4782 | x1 = 0.5789 | x1 = 0.6814 | x1 = 0.7857 | x1 = 0.8919
298.15 K | 0.3742 ± 0.022 | 0.4162 ± 0.023 | 0.4785 ± 0.024 | 0.558 ± 0.025 | 0.6509 ± 0.026 | 0.7533 ± 0.028 | 0.8608 ± 0.03 | 0.9682 ± 0.032 | 1.07 ± 0.034
308.15 K | 0.3267 ± 0.022 | 0.3622 ± 0.022 | 0.4177 ± 0.023 | 0.4891 ± 0.024 | 0.5719 ± 0.025 | 0.6612 ± 0.026 | 0.7513 ± 0.028 | 0.8362 ± 0.029 | 0.9088 ± 0.031
318.15 K | 0.2808 ± 0.021 | 0.3168 ± 0.022 | 0.3759 ± 0.022 | 0.4515 ± 0.023 | 0.5363 ± 0.024 | 0.6224 ± 0.026 | 0.7005 ± 0.027 | 0.7609 ± 0.028 | 0.7925 ± 0.029

ClCCCl + CC#N
101.33 kPa
Conditions | viscosity [mPa·s]
298 K, x2 = 0.0717 | 0.754 ± 0.01
298 K, x2 = 0.1909 | 0.698 ± 0.01
298 K, x2 = 0.2938 | 0.65 ± 0.009
298 K, x2 = 0.3884 | 0.607 ± 0.009
298 K, x2 = 0.4948 | 0.558 ± 0.008
298 K, x2 = 0.5896 | 0.515 ± 0.008
298 K, x2 = 0.6957 | 0.468 ± 0.008
298 K, x2 = 0.7981 | 0.425 ± 0.007
298 K, x2 = 0.8955 | 0.385 ± 0.007
303.15 K, x2 = 0.113 | 0.674 ± 0.0084
303.15 K, x2 = 0.1744 | 0.6458 ± 0.0082
303.15 K, x2 = 0.2643 | 0.6069 ± 0.0079
303.15 K, x2 = 0.3563 | 0.5679 ± 0.0075
303.15 K, x2 = 0.4072 | 0.5471 ± 0.0074
303.15 K, x2 = 0.543 | 0.4921 ± 0.0069
303.15 K, x2 = 0.6825 | 0.4372 ± 0.0065
303.15 K, x2 = 0.8073 | 0.3903 ± 0.0061
303.15 K, x2 = 0.8792 | 0.3647 ± 0.0059
303.15 K, x2 = 0.9181 | 0.3513 ± 0.0058

CCNc1ccccc1 + CC(=O)c1ccccc1
303.15 K, 100 kPa
Conditions | viscosity [mPa·s]
x1 = 0.0651 | 1.524 ± 0.02
x1 = 0.1424 | 1.538 ± 0.02
x1 = 0.2225 | 1.554 ± 0.02
x1 = 0.2977 | 1.568 ± 0.02
x1 = 0.3611 | 1.581 ± 0.021
x1 = 0.4487 | 1.599 ± 0.021
x1 = 0.5162 | 1.614 ± 0.021
x1 = 0.5869 | 1.631 ± 0.021
x1 = 0.6407 | 1.644 ± 0.021
x1 = 0.7083 | 1.662 ± 0.021
x1 = 0.7798 | 1.681 ± 0.022
x1 = 0.8256 | 1.694 ± 0.022
x1 = 0.9025 | 1.715 ± 0.022

ClCCl + CC(=O)c1ccccc1
298.15 K, 101 kPa
Conditions | viscosity [mPa·s]
x2 = 0.0728 | 0.5046 ± 0.028
x2 = 0.1501 | 0.5598 ± 0.031
x2 = 0.2324 | 0.6209 ± 0.033
x2 = 0.3201 | 0.6967 ± 0.037
x2 = 0.4139 | 0.7804 ± 0.04
x2 = 0.5144 | 0.8931 ± 0.045
x2 = 0.6224 | 1.036 ± 0.052
x2 = 0.7386 | 1.212 ± 0.059
x2 = 0.8641 | 1.422 ± 0.069

CCC(C)Br (centres undefined) + CC(C)(C)O
viscosity [mPa·s], 101.3 kPa
Conditions | x1 = 0.05 | x1 = 0.102 | x1 = 0.2043 | x1 = 0.3044 | x1 = 0.4041 | x1 = 0.5032 | x1 = 0.6203 | x1 = 0.7036 | x1 = 0.8056 | x1 = 0.9064
298.15 K | 3.175 ± 0.028 | 2.363 ± 0.022 | 1.519 ± 0.013 | 1.152 ± 0.0095 | 0.9576 ± 0.0077 | 0.8183 ± 0.0066 | 0.7087 ± 0.0058 | 0.6532 ± 0.0054 | 0.6048 ± 0.0051 | 0.5718 ± 0.0049
313.15 K | 1.651 ± 0.023 | 1.36 ± 0.016 | 0.9969 ± 0.0092 | 0.8102 ± 0.0071 | 0.7146 ± 0.0062 | 0.6337 ± 0.0054 | 0.5665 ± 0.0048 | 0.5317 ± 0.0046 | 0.4987 ± 0.0044 | 0.4777 ± 0.0042

CCNc1ccccc1 + CC(C)(C)O
viscosity [mPa·s], 101 kPa
Conditions | 303.15 K | 308.15 K
x1 = 0.0789 | 3.287 ± 0.037 | 2.6 ± 0.034
x1 = 0.1325 | 3.222 ± 0.036 | 2.566 ± 0.033
x1 = 0.1974 | 3.139 ± 0.034 | 2.522 ± 0.032
x1 = 0.2562 | 3.061 ± 0.033 | 2.478 ± 0.03
x1 = 0.3315 | 2.957 ± 0.031 | 2.414 ± 0.029
x1 = 0.4056 | 2.848 ± 0.03 | 2.343 ± 0.027
x1 = 0.4868 | 2.717 ± 0.028 | 2.256 ± 0.025
x1 = 0.5626 | 2.59 ± 0.026 | 2.167 ± 0.024
x1 = 0.6195 | 2.488 ± 0.025 | 2.096 ± 0.023
x1 = 0.6889 | 2.359 ± 0.023 | 2.003 ± 0.021
x1 = 0.7514 | 2.241 ± 0.022 | 1.916 ± 0.02
x1 = 0.8214 | 2.102 ± 0.02 | 1.815 ± 0.018
x1 = 0.8914 | 1.96 ± 0.018 | 1.71 ± 0.017
